In PMC12383145, “Fluorescent Peptides Internalize HeLa Cells and Kill Multidrug-Resistant Clinical Bacterial Isolates” (Antibiotics, 2025):
≈ marks a conversion by molar mass, not a printed value. Where “and” joins values, the source holds several entries; their conditions need not be identical. Equal values may be shown once. Read-outs that look alike come from different tables or passages of the source. Positions of bridges follow the written chain, without caps; N, C: chain ends. Non-standard residues stand in square brackets, D forms with d. Residues, ends and D or L forms follow the SMILES beside them. Chains are numbered I, II in the order given. hPhe = N[C@@H](CCc1ccccc1)C(=O)O; 2Abz = Nc1ccccc1C(=O)O; Ahx = NCCCCCC(=O)O

What was measured:
Type in all cases: cell-based
[1] = MTT cytotoxicity assay in HeLa cells; conditions: human
Experimental: MTT assays were conducted in HeLa cells to evaluate the effect of fluorescent probe incorporation on the in vitro cytotoxic activity of the parent non-conjugated peptides. The cytotoxic effect of peptides 1, Abz-1 RhB-1, 2, and RhB-2 in HeLa cells was peptide concentration-dependent, with the highest anticancer activity observed at 200 µg/mL. Incorporation of 2-Abz and RhB at the N-terminal end reduced cytotoxic activity, while the binding of 2-Abz at the C-terminal end or FAM at the N-terminal end drastically diminished anticancer activity (Table 4).

Hemolysis assay = experiment: Hemolysis assay
Experimental: Whole blood was collected into EDTA tubes and centrifuged at 2500 rpm for 10 min. The plasma and buffy coat were removed, and the erythrocytes were washed three times with 0.9% saline to yield a 4% cell suspension. In 96-well plates, 100 µL of peptide dilutions (6.25–200 µg/mL) were prepared in triplicate, and 100 µL of the erythrocyte suspension was added (final hematocrit 2%). Plates were incubated at 37 °C for 2 h, and then centrifuged again at 2500 rpm for 10 min. A 100 µL aliquot of the supernatant was transferred to a fresh plate, and absorbance was measured at 450 nm. Saline and 1× Triton X-100 served as the negative and positive controls, respectively. Hemolysis (%) was calculated as follows: %hemolysis=treatment absorbance−saline absorbance/1×triton absorbance−saline absorbance

[2] = tested on: E. faecalis clinical isolate 179; conditions: E. faecalis clinical isolate 179
Experimental: (§1) E. coli isolates 1004 (susceptible), 129797 (resistant), and 301755 (MDR) were selected for evaluation. Isolate 1004 was sensitive to all antibiotics tested. […] These findings identify it as a multidrug-resistant (MDR) strain and an extended-spectrum beta-lactamase (ESBL)-producing bacterium. For S. aureus, isolates 109095, 117719, and 124653 were evaluated. All three were resistant to penicillin, indicating beta-lactamase production mediated by the blaZ gene. Studies have shown that up to 90% of S. aureus isolates worldwide are penicillin-resistant, which implies that this antibiotic is ineffective in infections caused by this pathogen. […] Isolate 124653 was resistant to penicillin, tetracycline, and erythromycin, with the latter belonging to the group of macrolides, antibiotics that inhibit protein synthesis through interaction with the 50S […] subunit. For E. faecalis three isolates were selected: strains 213 (sensitive to all the antibiotics tested), strain 82 (resistant to streptomycin), and strain 179 (resistant to gentamicin). These clinical isolates were selected to assess the antimicrobial activity of the peptide RWQWRWQWR and its analogues conjugated to fluorescent molecules in strains against strains with susceptibility profiles.
(§2) The analysis of synthesized peptides in ATCC reference strains and susceptible, resistant, and multidrug-resistant (MDR) clinical isolates was performed. The clinical isolates were obtained from the National Cancer Institute collection and were previously identified and antibiogrammed using the VITEK system. Additionally, the strains were characterized by MALDI-TOF. The strains were re-primed onto trypticase soy agar and subsequently preserved in Brain–Heart Infusion (BHI) broth containing 20% glycerol. For the MIC and MBC assays, the strains were reactivated and cultured in BHI until they reached their exponential growth phase.
(§3) The minimum inhibitory concentration (MIC) of the peptides was determined by the broth microdilution technique, according to the Clinical and Laboratory Standards Institute (CLSI) guidelines, as previously described. Briefly, bacterial strains were incubated in BHI broth at 37 °C until they reached the exponential growth phase, and inocula were adjusted to 5 × 10^6 CFU/mL using calibration curves. Serial dilutions of the peptides to be evaluated in 96-well plates were made in 90 µL of Mueller Hinton broth at concentrations ranging from 200 to 6.25 µg/mL, and 10 µL of the inoculum adjusted to 5 × 10^6 CFU/mL was added. Finally, the plates were incubated at 37 °C for 24 h, and the absorbance at 620 nm was read. As a negative control, CMH, distilled water, and 10 µL of inoculum were used; for the positive control, vancomycin was used for Gram-positive strains and ciprofloxacin for Gram-negative strains at the MICs dictated by the CLSI; as a technical control, CMH with peptone water was used, and for the growth control, CMH was used with 10 µL of inoculum.
(§4) To determine the minimum bactericidal concentration (MBC), the 96-well plates where the MIC was determined were used as a starting point. From these, an aliquot of the controls and those wells where no apparent bacterial growth was observed were spotted onto trypticase soy agar plates. The plates were incubated at 37 °C for 24 h, and the reading was taken, identifying the lowest concentration of the peptide where there was no bacterial growth as the MBC.

[3] = tested on: E. coli clinical isolate 129797 (resistant); conditions: E. coli clinical isolate 129797
Experimental: as §1, §2, §3, §4

[4] = tested on: S. aureus clinical isolate 109095; conditions: S. aureus clinical isolate 109095
Experimental: as §1, §2, §3, §4

[5] = tested on: S. aureus clinical isolate 124653; conditions: S. aureus clinical isolate 124653
Experimental: as §1, §2, §3, §4

[6] = tested on: E. faecalis clinical isolate 82; conditions: E. faecalis clinical isolate 82
Experimental: as §1, §2, §3, §4

[7] = tested on: E. coli clinical isolate 301755 (MDR); conditions: E. coli clinical isolate 301755
Experimental: as §1, §2, §3, §4

[8] = tested on: E. coli clinical isolate 1004 (susceptible); conditions: E. coli clinical isolate 1004
Experimental: as §1, §2, §3, §4

[9] = tested on: clinical isolates of E. coli; conditions: stated for all three E. coli clinical isolates
Experimental: as §1, §2, §3, §4

[10] = tested on: E. faecalis clinical isolate 213; conditions: E. faecalis clinical isolate 213
Experimental: as §1, §2, §3, §4

[11] = tested on: S. aureus clinical isolate 11719; conditions: S. aureus clinical isolate 11719
E. coli ATCC 25922 = conditions: E. coli ATCC 25922
Experimental: as §3, §4

[12] = tested on: K. pneumoniae ATCC 700603; conditions: K. pneumoniae ATCC 700603
Experimental: as §3, §4

P. aeruginosa ATCC 27853 = conditions: P. aeruginosa ATCC 27853
Experimental: as §3, §4

E. faecalis ATCC 29212 = conditions: E. faecalis ATCC 29212
Experimental: as §3, §4

## CC(C)C[C@H](NC(=O)[C@H](CCCCN)NC(=O)[C@H](CCCCN)NC(=O)[C@H](CCc1ccccc1)NC(=O)[C@H](CCCNC(=N)N)NC(=O)[C@H](Cc1c[nH]c2ccccc12)NC(=O)[C@H](CCC(N)=O)NC(=O)[C@H](Cc1c[nH]c2ccccc12)NC(=O)[C@H](CCCNC(=N)N)NC(=O)[C@@H](N)CCCNC(=N)N)C(=O)NCC(=O)NCCCC[C@H](NC(=O)CNC(=O)[C@H](CC(C)C)NC(=O)[C@H](CCCCN)NC(=O)[C@H](CCCCN)NC(=O)[C@H](CCc1ccccc1)NC(=O)[C@H](CCCNC(=N)N)NC(=O)[C@H](Cc1c[nH]c2ccccc12)NC(=O)[C@H](CCC(N)=O)NC(=O)[C@H](Cc1c[nH]c2ccccc12)NC(=O)[C@H](CCCNC(=N)N)NC(=O)[C@@H](N)CCCNC(=N)N)C(=O)NCCCCCC(N)=O [peptide 2, (RRWQWR-hF-KKLG)2K-Ahx] (I: H-RRWQWR[hPhe]KKLGK[Ahx]-NH2 / II: H-RRWQWR[hPhe]KKLG; amide I:12-II:C; N-terminus assumed)
[1]
  IC50: 109 µg/mL and 32 µM

## N=C(N)NCCC[C@H](NC(=O)[C@H](Cc1c[nH]c2ccccc12)NC(=O)[C@H](CCC(N)=O)NC(=O)[C@H](Cc1c[nH]c2ccccc12)NC(=O)[C@H](CCCNC(=N)N)NC(=O)[C@H](Cc1c[nH]c2ccccc12)NC(=O)[C@H](CCC(N)=O)NC(=O)[C@H](Cc1c[nH]c2ccccc12)NC(=O)[C@@H](N)CCCNC(=N)N)C(=O)Nc1ccccc1C(N)=O [1-Abz, RWQWRWQWR-(2-Abz)] (H-RWQWRWQWR[2Abz]-NH2)
Hemolysis assay; at 200 µg/mL (highest tested concentration), 2 h, 37 °C, read-out: hemolysis
  hemolysis at 2 h: 1.5%
Hemolysis assay; at the lowest MIC concentration, read-out: Percentage of hemolysis
  hemolysis at 2 h: 0.9%
[1]; HeLa cells, MTT, read-out: Cytotoxic Activity (IC50)
  IC50: > 200 µg/mL and > 125 µM
[2]
  Minimal bactericidal concentration (MBC): > 125 µM
  Minimal inhibitory concentration (MIC): > 125 µM
[3]
  Minimal bactericidal concentration (MBC): 125 µM (≈ 201 µg/mL)
  Minimal inhibitory concentration (MIC): 62 µM (≈ 99.6 µg/mL)
[4]
  Minimal bactericidal concentration (MBC): 125 µM (≈ 201 µg/mL)
  Minimal inhibitory concentration (MIC): 125 µM (≈ 201 µg/mL)
[5]
  Minimal bactericidal concentration (MBC): > 125 µM
  Minimal inhibitory concentration (MIC): 125 µM (≈ 201 µg/mL)
[6]
  Minimal bactericidal concentration (MBC): > 125 µM
  Minimal inhibitory concentration (MIC): > 125 µM
[7]
  Minimal bactericidal concentration (MBC): 125 µM (≈ 201 µg/mL)
  Minimal inhibitory concentration (MIC): 62 µM (≈ 99.6 µg/mL)
[8]
  Minimal bactericidal concentration (MBC): 125 µM (≈ 201 µg/mL)
  Minimal inhibitory concentration (MIC): 62 µM (≈ 99.6 µg/mL)
[9]
  MBC: 125 µM (≈ 201 µg/mL)
[10]
  Minimal bactericidal concentration (MBC): > 125 µM
  Minimal inhibitory concentration (MIC): > 125 µM
[11]
  Minimal bactericidal concentration (MBC): 125 µM (≈ 201 µg/mL)
  Minimal inhibitory concentration (MIC): 125 µM (≈ 201 µg/mL)
E. coli ATCC 25922
  Minimal bactericidal concentration (MBC): 62 µM (≈ 99.6 µg/mL)
  Minimal inhibitory concentration (MIC): 62 µM (≈ 99.6 µg/mL)
[12]
  Minimal bactericidal concentration (MBC): 125 µM (≈ 201 µg/mL)
  Minimal inhibitory concentration (MIC): 125 µM (≈ 201 µg/mL)
P. aeruginosa ATCC 27853
  Minimal bactericidal concentration (MBC): > 125 µM
  Minimal inhibitory concentration (MIC): 125 µM (≈ 201 µg/mL)
E. faecalis ATCC 29212
  Minimal bactericidal concentration (MBC): > 125 µM
  Minimal inhibitory concentration (MIC): 125 µM (≈ 201 µg/mL)
